“And” between values parts separate entries of the source, which are not always exact repeats. Equal entries are not always repeated.
Experiments:
Test in all cases: radiometric filter-binding kinase assay, Kinase HotSpot
Settings in all cases: compound 0.5 µM; ATP 10 µM
ACVR1 (human) = ACVR1 (human) (UniProt Q04771)
AKT3 (human) = AKT3 (human) (UniProt Q9Y243)
CDK3 CCNE1 (human) = CDK3 CCNE1 (human) (UniProt Q00526+P24864)
CHUK (human) = CHUK (human) (UniProt O15111)
CLK1 (human) = CLK1 (human) (UniProt P49759)
CLK2 (human) = CLK2 (human) (UniProt P49760)
CLK3 (human) = CLK3 (human) (UniProt P49761)
CSNK1G1 (human) = CSNK1G1 (human) (UniProt Q9HCP0)
DYRK2 (human) = DYRK2 (human) (UniProt Q92630)
EPHB1 (human) = EPHB1 (human) (UniProt P54762)
EPHB4 (human) = EPHB4 (human) (UniProt P54760)
ERBB2 (human) = ERBB2 (human) (UniProt P04626)
HCK (human) = HCK (human) (UniProt P08631)
INSRR (human) = INSRR (human) (UniProt P14616)
[1] = target: JAK1 JH1 catalytic (human) (UniProt P23458)
JAK2 JH1 JH2 (human) = JAK2 JH1 JH2 (human) (UniProt O60674)
LIMK1 (human) = LIMK1 (human) (UniProt P53667)
LYN (human) = LYN (human) (UniProt P07948)
MAP3K10 (human) = MAP3K10 (human) (UniProt Q02779)
MAP3K5 (human) = MAP3K5 (human) (UniProt Q99683)
MAP4K5 (human) = MAP4K5 (human) (UniProt Q9Y4K4)
MAPK8 (human) = MAPK8 (human) (UniProt P45983)
MARK3 (human) = MARK3 (human) (UniProt P27448)
MLTK (human) = MLTK (human) (UniProt Q9NYL2)
NEK2 (human) = NEK2 (human) (UniProt P51955)
NEK6 (human) = NEK6 (human) (UniProt Q9HC98)
NTRK3 (human) = NTRK3 (human) (UniProt Q16288)
PAK3 (human) = PAK3 (human) (UniProt O75914)
PAK4 (human) = PAK4 (human) (UniProt O96013)
PHKG1 (human) = PHKG1 (human) (UniProt Q16816)
PLK3 (human) = PLK3 (human) (UniProt Q9H4B4)
PRKG1 (human) = PRKG1 (human) (UniProt Q13976)
PTK2B (human) = PTK2B (human) (UniProt Q14289)
RET (human) = RET (human) (UniProt P07949)
RPS6KA5 KD2 (human) = RPS6KA5 KD2 (human) (UniProt O75582)
RPS6KA6 KD1 KD2 (human) = RPS6KA6 KD1 KD2 (human) (UniProt Q9UK32)
TAOK1 (human) = TAOK1 (human) (UniProt Q7L7X3)
TEC (human) = TEC (human) (UniProt P42680)
TGFBR1 (human) = TGFBR1 (human) (UniProt P36897)
ULK1 (human) = ULK1 (human) (UniProt O75385)
ULK2 (human) = ULK2 (human) (UniProt Q8IYT8)
VRK1 (human) = VRK1 (human) (UniProt Q99986)

Sequence of PRKG1 (human) (Q13976 whole entry, looked up): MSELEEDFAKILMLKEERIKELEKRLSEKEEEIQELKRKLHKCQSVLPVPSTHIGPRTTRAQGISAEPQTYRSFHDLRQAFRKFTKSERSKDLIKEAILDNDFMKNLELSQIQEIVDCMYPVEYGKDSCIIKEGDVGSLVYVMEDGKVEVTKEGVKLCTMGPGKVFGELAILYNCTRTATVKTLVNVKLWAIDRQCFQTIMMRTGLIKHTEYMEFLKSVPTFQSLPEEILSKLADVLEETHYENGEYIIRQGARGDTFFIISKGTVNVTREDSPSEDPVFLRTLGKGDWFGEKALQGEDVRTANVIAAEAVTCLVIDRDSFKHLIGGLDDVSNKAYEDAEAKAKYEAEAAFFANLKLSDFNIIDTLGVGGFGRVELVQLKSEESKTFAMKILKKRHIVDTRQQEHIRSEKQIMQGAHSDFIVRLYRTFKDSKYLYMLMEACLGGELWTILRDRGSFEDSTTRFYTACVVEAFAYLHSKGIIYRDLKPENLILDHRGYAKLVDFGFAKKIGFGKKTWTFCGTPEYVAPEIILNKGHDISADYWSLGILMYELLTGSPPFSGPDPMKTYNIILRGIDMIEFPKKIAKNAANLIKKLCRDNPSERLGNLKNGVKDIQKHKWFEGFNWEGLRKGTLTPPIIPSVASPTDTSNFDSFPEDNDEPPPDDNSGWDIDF
Sequence of LYN (human) (P07948 whole entry, looked up): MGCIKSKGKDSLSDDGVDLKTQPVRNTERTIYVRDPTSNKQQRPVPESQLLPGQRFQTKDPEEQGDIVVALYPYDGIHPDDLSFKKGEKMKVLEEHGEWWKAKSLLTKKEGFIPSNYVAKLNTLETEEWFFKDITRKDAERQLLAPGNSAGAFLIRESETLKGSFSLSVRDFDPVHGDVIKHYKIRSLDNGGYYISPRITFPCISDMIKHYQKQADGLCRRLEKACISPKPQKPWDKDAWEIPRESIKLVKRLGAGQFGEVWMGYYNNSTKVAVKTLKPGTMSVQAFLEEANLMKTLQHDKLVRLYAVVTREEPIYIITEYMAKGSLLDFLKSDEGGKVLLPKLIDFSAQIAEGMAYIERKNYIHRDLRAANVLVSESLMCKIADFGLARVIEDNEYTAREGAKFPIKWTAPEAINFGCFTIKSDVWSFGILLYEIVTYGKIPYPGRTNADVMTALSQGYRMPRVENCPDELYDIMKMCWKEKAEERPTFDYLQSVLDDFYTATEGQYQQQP
Sequence of JAK1 JH1 catalytic (human) (P23458 whole entry, looked up): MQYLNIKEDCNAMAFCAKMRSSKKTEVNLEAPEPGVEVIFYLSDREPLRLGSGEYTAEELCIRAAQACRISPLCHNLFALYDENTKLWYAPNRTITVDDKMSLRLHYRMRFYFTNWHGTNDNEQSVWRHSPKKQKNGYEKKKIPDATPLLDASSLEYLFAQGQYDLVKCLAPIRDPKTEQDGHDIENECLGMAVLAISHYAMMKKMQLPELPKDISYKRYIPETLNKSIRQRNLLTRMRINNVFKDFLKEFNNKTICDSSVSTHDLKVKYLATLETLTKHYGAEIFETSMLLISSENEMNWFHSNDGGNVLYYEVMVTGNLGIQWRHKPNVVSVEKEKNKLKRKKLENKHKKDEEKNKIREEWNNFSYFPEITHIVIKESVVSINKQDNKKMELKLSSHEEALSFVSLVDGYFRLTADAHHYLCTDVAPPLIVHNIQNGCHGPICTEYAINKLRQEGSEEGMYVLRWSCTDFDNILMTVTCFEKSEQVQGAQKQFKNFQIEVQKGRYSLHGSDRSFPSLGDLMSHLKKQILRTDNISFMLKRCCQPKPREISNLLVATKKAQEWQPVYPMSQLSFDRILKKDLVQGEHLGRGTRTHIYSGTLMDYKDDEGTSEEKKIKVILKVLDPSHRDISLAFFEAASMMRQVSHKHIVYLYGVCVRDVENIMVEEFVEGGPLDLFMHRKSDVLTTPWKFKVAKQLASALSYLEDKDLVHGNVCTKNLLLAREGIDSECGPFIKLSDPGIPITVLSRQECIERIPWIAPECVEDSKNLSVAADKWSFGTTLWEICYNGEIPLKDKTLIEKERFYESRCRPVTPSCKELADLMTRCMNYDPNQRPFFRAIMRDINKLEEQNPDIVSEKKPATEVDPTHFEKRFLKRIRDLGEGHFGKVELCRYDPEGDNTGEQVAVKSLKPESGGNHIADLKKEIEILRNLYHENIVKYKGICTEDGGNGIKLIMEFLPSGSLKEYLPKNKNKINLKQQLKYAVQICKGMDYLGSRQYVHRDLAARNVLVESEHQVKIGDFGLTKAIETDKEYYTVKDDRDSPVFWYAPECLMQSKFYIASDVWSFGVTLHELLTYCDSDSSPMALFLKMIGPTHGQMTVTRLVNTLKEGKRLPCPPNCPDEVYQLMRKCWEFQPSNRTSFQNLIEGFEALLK
Sequence of MLTK (human) (Q9NYL2 whole entry, looked up): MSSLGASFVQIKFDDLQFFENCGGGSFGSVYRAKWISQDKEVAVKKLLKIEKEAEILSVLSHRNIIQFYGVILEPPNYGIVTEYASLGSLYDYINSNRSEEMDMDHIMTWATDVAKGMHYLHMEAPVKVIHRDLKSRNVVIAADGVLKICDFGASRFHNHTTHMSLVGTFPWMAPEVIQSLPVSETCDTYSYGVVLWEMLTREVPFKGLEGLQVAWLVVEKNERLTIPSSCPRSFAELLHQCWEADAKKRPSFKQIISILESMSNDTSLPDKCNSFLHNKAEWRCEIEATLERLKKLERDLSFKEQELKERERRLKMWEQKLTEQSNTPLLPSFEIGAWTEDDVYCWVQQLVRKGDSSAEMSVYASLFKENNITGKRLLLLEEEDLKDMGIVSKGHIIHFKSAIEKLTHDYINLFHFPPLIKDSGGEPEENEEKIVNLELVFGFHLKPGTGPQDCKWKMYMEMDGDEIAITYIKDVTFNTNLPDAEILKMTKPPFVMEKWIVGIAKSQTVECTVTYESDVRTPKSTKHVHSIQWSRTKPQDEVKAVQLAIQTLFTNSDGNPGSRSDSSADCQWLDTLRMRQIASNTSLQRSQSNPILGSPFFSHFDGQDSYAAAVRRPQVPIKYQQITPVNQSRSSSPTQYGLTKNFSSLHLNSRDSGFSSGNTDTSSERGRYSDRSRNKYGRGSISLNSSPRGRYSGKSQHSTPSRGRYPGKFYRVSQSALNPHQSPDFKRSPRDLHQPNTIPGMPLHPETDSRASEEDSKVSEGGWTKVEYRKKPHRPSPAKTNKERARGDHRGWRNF
Sequence of MAPK8 (human) (P45983 whole entry, looked up): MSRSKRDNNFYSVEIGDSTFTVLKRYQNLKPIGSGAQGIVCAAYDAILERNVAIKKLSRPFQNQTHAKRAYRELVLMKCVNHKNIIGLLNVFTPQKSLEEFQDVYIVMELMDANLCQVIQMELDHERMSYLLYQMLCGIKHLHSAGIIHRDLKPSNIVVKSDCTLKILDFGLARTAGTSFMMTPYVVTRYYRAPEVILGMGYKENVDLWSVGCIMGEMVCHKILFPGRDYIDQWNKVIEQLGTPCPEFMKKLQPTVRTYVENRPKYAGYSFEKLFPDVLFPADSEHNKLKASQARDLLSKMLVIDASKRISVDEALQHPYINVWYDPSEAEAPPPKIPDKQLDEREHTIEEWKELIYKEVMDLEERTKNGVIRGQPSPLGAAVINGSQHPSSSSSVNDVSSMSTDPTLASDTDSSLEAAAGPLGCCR
Sequence of RPS6KA6 KD1 KD2 (human) (Q9UK32 whole entry, looked up): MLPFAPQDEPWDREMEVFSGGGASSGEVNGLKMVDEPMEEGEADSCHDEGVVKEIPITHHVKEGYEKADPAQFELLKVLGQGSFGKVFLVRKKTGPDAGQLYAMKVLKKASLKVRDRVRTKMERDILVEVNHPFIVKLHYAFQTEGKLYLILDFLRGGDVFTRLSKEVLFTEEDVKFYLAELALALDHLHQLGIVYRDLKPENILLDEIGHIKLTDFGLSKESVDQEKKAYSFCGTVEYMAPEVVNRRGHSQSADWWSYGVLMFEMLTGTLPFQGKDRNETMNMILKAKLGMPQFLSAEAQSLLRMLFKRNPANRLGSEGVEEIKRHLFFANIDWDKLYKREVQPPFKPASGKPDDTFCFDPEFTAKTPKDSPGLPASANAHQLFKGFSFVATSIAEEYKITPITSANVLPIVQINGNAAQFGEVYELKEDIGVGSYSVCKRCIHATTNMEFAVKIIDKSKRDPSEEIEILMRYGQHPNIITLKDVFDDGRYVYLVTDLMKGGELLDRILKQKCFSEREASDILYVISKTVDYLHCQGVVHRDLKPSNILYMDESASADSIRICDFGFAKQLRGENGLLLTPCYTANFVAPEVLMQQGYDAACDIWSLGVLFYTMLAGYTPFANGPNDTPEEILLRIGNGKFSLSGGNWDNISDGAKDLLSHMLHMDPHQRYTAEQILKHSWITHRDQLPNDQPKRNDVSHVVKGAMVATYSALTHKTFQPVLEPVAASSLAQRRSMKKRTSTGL
Sequence of PLK3 (human) (Q9H4B4 whole entry, looked up): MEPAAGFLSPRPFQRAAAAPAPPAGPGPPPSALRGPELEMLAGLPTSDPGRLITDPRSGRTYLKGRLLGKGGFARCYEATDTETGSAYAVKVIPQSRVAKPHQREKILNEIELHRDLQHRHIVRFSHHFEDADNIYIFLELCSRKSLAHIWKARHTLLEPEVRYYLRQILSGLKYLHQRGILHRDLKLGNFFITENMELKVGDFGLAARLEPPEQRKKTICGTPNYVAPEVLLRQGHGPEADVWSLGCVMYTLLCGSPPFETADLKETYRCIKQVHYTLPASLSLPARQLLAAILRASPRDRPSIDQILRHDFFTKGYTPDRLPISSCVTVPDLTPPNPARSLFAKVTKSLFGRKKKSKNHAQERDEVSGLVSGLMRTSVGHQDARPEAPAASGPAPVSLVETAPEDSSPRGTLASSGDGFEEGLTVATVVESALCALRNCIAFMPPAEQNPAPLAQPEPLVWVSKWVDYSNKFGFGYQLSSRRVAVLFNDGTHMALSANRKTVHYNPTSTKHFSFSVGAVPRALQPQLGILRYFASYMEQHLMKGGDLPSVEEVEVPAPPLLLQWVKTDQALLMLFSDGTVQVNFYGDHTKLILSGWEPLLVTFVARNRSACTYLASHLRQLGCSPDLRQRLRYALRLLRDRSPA

`O=C1Nc2ccccc2/C1=C\c1c(Cl)[nH]c2ccccc12` gave a residual activity (ACVR1 (human)) of 100%, a residual activity (AKT3 (human)) of 93.6% and a residual activity (CDK3 CCNE1 (human)) of 94.1%. The residual activity (CHUK (human)) was 94.2%, the residual activity (CLK1 (human)) was 103% and the residual activity (CLK2 (human)) was 92.7%. The residual activity (CLK3 (human)) was 102%, the residual activity (CSNK1G1 (human)) was 99.3% and the residual activity (DYRK2 (human)) was 103%. It also gave a residual activity (EPHB1 (human)) of 90.8%, a residual activity (EPHB4 (human)) of 90.2% and a residual activity (ERBB2 (human)) of 97.3%. For the same compound, the residual activity (HCK (human)) was 98.5%, the residual activity (INSRR (human)) was 93.7% and the residual activity [1] was 96.6%. The residual activity (JAK2 JH1 JH2 (human)) was 103%, the residual activity (LIMK1 (human)) was 109% and the residual activity (LYN (human)) was 93.6% and 99.7%. The residual activity (MAP3K10 (human)) was 94.7%, the residual activity (MAP3K5 (human)) was 107% and the residual activity (MAP4K5 (human)) was 95%. It also gave a residual activity (MAPK8 (human)) of 93.5%, a residual activity (MARK3 (human)) of 104% and a residual activity (MLTK (human)) of 99.2%. For the same compound, the residual activity (NEK2 (human)) was 99%, the residual activity (NEK6 (human)) was 96.5% and the residual activity (NTRK3 (human)) was 92.9%. The residual activity (PAK3 (human)) was 98.8%, the residual activity (PAK4 (human)) was 104% and the residual activity (PHKG1 (human)) was 85.4%. The residual activity (PLK3 (human)) was 101%, the residual activity (PRKG1 (human)) was 92.5% and 93.6% and the residual activity (PTK2B (human)) was 95.5%. The residual activity (RET (human)) was 93%, the residual activity (RPS6KA5 KD2 (human)) was 85.5% and the residual activity (RPS6KA6 KD1 KD2 (human)) was 91.2%. The residual activity (TAOK1 (human)) was 100%, the residual activity (TEC (human)) was 124% and the residual activity (TGFBR1 (human)) was 94.4%. It also gave a residual activity (ULK1 (human)) of 106%, a residual activity (ULK2 (human)) of 99.7% and a residual activity (VRK1 (human)) of 104%.
